Assay results taken from patent US20180272327A1, “IONIC LIQUID CATALYST TREATING SYSTEM” (UOP LLC, priority 2015, published 2018).

Test system: Aliivibrio fischeri bacteria
Assay: Toxicity test: EC-50 for the luminescence of Aliivibrio fischeri bacteria
Type: cell-based
Conditions: for EC-50 for this ionic liquid: worked out from the dilution EC-50 and the ionic liquid content of the solution
Method: After filtration to remove the precipitate, this solution, which contains approximately 0.014 mg of ionic liquid/mg solution, was tested for toxicity. The half maximal effective concentration (EC-50) for this solution was then determined for the luminescence of Aliivibrio fischeri bacteria to assess the toxicity of the solution. […] 10.1 grams of a tri-butyl pentyl phosphonium ionic liquid (TBPP) was added to 770 grams of deionized (DI) water, giving a pH of about 3. […] After filtration to remove the precipitate, this solution, which contains approximately 0.013 mg of ionic liquid/mg solution, was tested for toxicity. The EC-50 for this solution was then determined for the luminescence of Aliivibrio fischeri bacteria to assess the toxicity of the solution.

[1] = luminescence of Aliivibrio fischeri

Compound	EC-50 reached at a dilution (of the neutralized, filtered ionic liquid solution) (luminescence of Aliivibrio fischeri, ionic liquid in DI water neutralized with NaOH to pH approximately 6, precipitate filtered off, approximately 0.013-0.014 mg ionic liquid/mg solution) [mg solution/Liter water]	EC-50 for this ionic liquid [1]	EC50 (Aliivibrio fischeri, read-out: EC-50 reached at a dilution (of the neutralized, filtered ionic liquid solution)) [µg/mL]
tri-butyl pentyl phosphonium ionic liquid [TBPP]	1.2	approximately 16 ppB	–
CCCCn1cc[n+](C)c1.F[P-](F)(F)(F)(F)F [BMIM, 1-butyl-3-methylimidazolium hexafluorophosphate]	–	approximately 80 ppB	5.7
